Here are results for ten molecules from patent US8207208B2, “Angiotensin II receptor antagonists” (Merck Sharp & Dohme Corp., priority 2008, dated 2012).

Assay [1] deals with reactive nitrogen species (RNS), detected as S-nitrosothiols in rat plasma. Put plainly: DAN assay of reactive nitrogen species in plasma after oral dosing of rats. The note with it: fasted SD rats, 40 mpk PO. The assay is classed as in vivo, Sprague-Dawley rats. How it is done:
Mononitrate compounds that have been orally dosed to rats result in nitrites (metabolites of nitric oxide) circulating in plasma with maximal concentrations in the 0.5-2 μM range. Similar dosing of isosorbide mononitrate compounds described in this invention results in increased circulating nitrite concentrations. Biochemical evidence for the generation of NO in vivo in response to test compound administration was obtained from studies in Sprague-Dawley rats. Administration of test compound to fasted SD rats (40 mpk, PO) results in the appearance of reactive nitrogen species (RNS), assessed using the diaminonapthalene derivitization (DAN) assay.
RNS were detected as S-nitrosothiols (RNSOs) in EDTA-treated rat plasma using an HPLC fluorescent assay based on the method of Kostka and Park (Methods Enzymol. 1999, 301, 227-235). The method is based on the detection of fluorescent 2,3-naphthotriazole (NAT) formed in the reaction between acidified 2,3-diaminonaphthalene and the nitrosonium moiety of RSNOs released by HgCl2-mediated breakdown of the S—NO bond. The reaction mixture was chromatographed by reversed phase HPLC, and the fluorescent signal of the resolved NAT peak was quantified.
Plasma (20 μL) was first diluted 1:1 in H2O (20 μL) in a black polypropylene untreated microtiter plate. DAN reagent (100 μL per well, 100 μM DAN in 0.1 N HCl, 4 mM HgCl2) was added, and the plate was immediately sealed with an opaque plate mat, vortexed, and incubated in the dark for 10 min. Plates were centrifuged (2000×g, 5 min) and chilled to 4° C. before HPLC analysis. HPLC was carried out on an Agilent 1200 system using a chilled autosampler (4° C.). Samples were chromatographed on a C8 column (Zorbax Eclipse XDB-C8, 4.6×150 mm, 5 μm) with isocratic elution using a mobile phase of 67% MeOH, 0.1% NH4OAc and a flow rate of 2 mL/min. NAT fluorescence was monitored at 450 nm using an excitation wavelength of 360 nm. Calibration curves were prepared using NaNO2 in control plasma.
RNS change for Examples 2, 3, 4, 5, 7, 10, 11 and 12 was measured at 1, 3, 6 and 24 hours, and is shown below.

For assay [2], the system named is vessel. Put plainly: vessel relaxation assay.

As for `CCCCc1nc(Cl)c(C(=O)OCCC(=O)O[C@H]2CO[C@H]3[C@@H]2OC[C@H]3O[N+](=O)[O-])n1Cc1ccc(-c2ccccc2-c2nnn[nH]2)cc1` [Example 12, 3-{[(3S,3aR,6R,6aS)-6-(nitrooxy)hexahydrofuro[3,2-b]furan-3-yl]oxy}-3-oxopropyl 2-butyl-4-chloro-1-{[2′-(1H-tetrazol-5-yl)biphenyl-4-yl]methyl}-1H-imidazole-5-carboxylate], the “DAN ΔRNS” value was 0.5 ± 0.2 µM in assay [1] (1 h), 1.5 ± 0.9 µM in assay [1] (3 h), 1.3 ± 0.6 µM in assay [1] (6 h) and 0.0 ± 0.2 µM in assay [1] (24 h). For the same molecule, the half-maximal effective concentration (EC50) in assay [2] is 20.6 µM.
Molecule `CCOc1nc2cccc(C(=O)OC(C)(C)OC(=O)O[C@H]3CO[C@H]4[C@@H]3OC[C@H]4O[N+](=O)[O-])c2n1Cc1ccc(-c2ccccc2-c2nnn[nH]2)cc1` [Example 1, 1-[({[(3S,6R)-6-(nitrooxy)hexahydrofuro[3,2-b]furan-3-yl]oxy}carbonyl)oxy]-1-methylethyl 2-ethoxy-1-{[2′-(1H-tetrazol-5-yl)biphenyl-4-yl]methyl}-1H-benzimidazole-7-carboxylate] registered an EC50 in assay [2] of 14.2 µM.
For the molecule `CCCCc1nc(Cl)c(C(=O)O[C@H](C)C(=O)O[C@H]2CO[C@H]3[C@@H]2OC[C@H]3O[N+](=O)[O-])n1Cc1ccc(-c2ccccc2-c2nnn[nH]2)cc1` [Example 10, (1R)-1-methyl-2-{[(3S,3aR,6R,6aS)-6-(nitrooxy)hexahydrofuro[3,2-b]furan-3-yl]oxy}-2-oxoethyl 2-butyl-4-chloro-1-{[2′-(1H-tetrazol-5-yl)biphenyl-4-yl]methyl}-1H-imidazole-5-carboxylate], the “DAN ΔRNS” value worked out at 0.7 ± 0.3 µM in assay [1] (1 h), 2.0 ± 0.4 µM in assay [1] (3 h), 1.9 ± 0.7 µM in assay [1] (6 h) and 0.1 ± 0.3 µM in assay [1] (24 h).
In assay [2], “2-{[(3S,3aR,6R,6aS)-6-(nitrooxy)hexahydrofuro[3,2-b]furan-3-yl]oxy}-2-oxoethyl 2-butyl-4-chloro-1-{[2′-(1H-tetrazol-5-yl)biphenyl-4-yl]methyl}-1H-imidazole-5-carboxylate [Example 9]” came in with an EC50 of 5.1 µM.
For the molecule `CCOc1nc2cccc(C(=O)O[C@H](C)OC(=O)O[C@H]3CO[C@H]4[C@@H]3OC[C@H]4O[N+](=O)[O-])c2n1Cc1ccc(-c2ccccc2-c2nnn[nH]2)cc1` [Example 4, (1S)-1-[({[(3S,3aR,6R,6aS)-6-(nitrooxy)hexahydrofuro[3,2-b]furan-3-yl]oxy}carbonyl)oxy]ethyl 2-ethoxy-1-{[2′-(1H-tetrazol-5-yl)biphenyl-4-yl]methyl}-1H-benzimidazole-7-carboxylate], the “DAN ΔRNS” value in assay [1] (1 h) was found to be 0.9 ± 0.2 µM; in assay [1] (3 h) it was 2.1 ± 1.4 µM; in assay [1] (6 h) it was 4.2 ± 2.1 µM; in assay [1] (24 h), 0.6 ± 0.3 µM. In assay [2], this molecule showed an EC50 of 8.9 µM.
As to `CCCCc1nc(Cl)c(C(=O)O[C@H](C)OC(=O)O[C@H]2CO[C@H]3[C@@H]2OC[C@H]3O[N+](=O)[O-])n1Cc1ccc(-c2ccccc2-c2nnn[nH]2)cc1` [Example 2, (1S)-1-[({[(3S,3aR,6R,6aS)-6-(nitrooxy)hexahydrofuro[3,2-b]furan-3-yl]oxy}carbonyl)oxy]ethyl 2-butyl-4-chloro-1-{[2′-(1H-tetrazol-5-yl)biphenyl-4-yl]methyl}-1H-imidazole-5-carboxylate], the “DAN ΔRNS” value turned out to be 2.3 ± 1.0 µM in assay [1] (1 h), 6.1 ± 1.1 µM in assay [1] (3 h), 4.5 ± 1.4 µM in assay [1] (6 h) and 1.1 ± 0.7 µM in assay [1] (24 h). The same molecule showed an EC50 in assay [2] of 9.5 µM.
For `CCCCc1nc(Cl)c(C(=O)O[C@@H](C)OC(=O)O[C@H]2CO[C@H]3[C@@H]2OC[C@H]3O[N+](=O)[O-])n1Cc1ccc(-c2ccccc2-c2nnn[nH]2)cc1` [Example 3, (1R)-1-[({[(3S,3aR,6R,6aS)-6-(nitrooxy)hexahydrofuro[3,2-b]furan-3-yl]oxy}carbonyl)oxy]ethyl 2-butyl-4-chloro-1-{[2′-(1H-tetrazol-5-yl)biphenyl-4-yl]methyl}-1H-imidazole-5-carboxylate], in that order: 0.5 ± 0.4 µM, 2.7 ± 0.5 µM, 3.0 ± 0.5 µM, 0.1 ± 0.7 µM and 15.4 µM.
Regarding `CCOc1nc2cccc(C(=O)O[C@@H](C)OC(=O)O[C@H]3CO[C@H]4[C@@H]3OC[C@H]4O[N+](=O)[O-])c2n1Cc1ccc(-c2ccccc2-c2nnn[nH]2)cc1` [Example 5, (1R)-1-[({[(3S,3aR,6R,6aS)-6-(nitrooxy)hexahydrofuro[3,2-b]furan-3-yl]oxy}carbonyl)oxy]ethyl 2-ethoxy-1-{[2′-(1H-tetrazol-5-yl)biphenyl-4-yl]methyl}-1H-benzimidazole-7-carboxylate], the “DAN ΔRNS” value in assay [1] (1 h) was 0.7 ± 0.5 µM; in assay [1] (3 h), 2.5 ± 1.0 µM; in assay [1] (6 h), 2.4 ± 1.2 µM; in assay [1] (24 h), -0.3 ± 0.6 µM.
With `CCCCc1nc(Cl)c(C(=O)O[C@@H](C)C(=O)O[C@H]2CO[C@H]3[C@@H]2OC[C@H]3O[N+](=O)[O-])n1Cc1ccc(-c2ccccc2-c2nnn[nH]2)cc1` [Example 11, (1S)-1-methyl-2-{[(3S,3aR,6R,6aS)-6-(nitrooxy)hexahydrofuro[3,2-b]furan-3-yl]oxy}-2-oxoethyl 2-butyl-4-chloro-1-{[2′-(1H-tetrazol-5-yl)biphenyl-4-yl]methyl}-1H-imidazole-5-carboxylate], the “DAN ΔRNS” value is 1.1 ± 1.2 µM in assay [1] (1 h), 3.3 ± 1.5 µM in assay [1] (3 h), 1.8 ± 2.0 µM in assay [1] (6 h) and 0.1 ± 1.8 µM in assay [1] (24 h).
Consider `CCCCc1nc(Cl)c(C(=O)O[C@H]2CO[C@H]3[C@@H]2OC[C@H]3O[N+](=O)[O-])n1Cc1ccc(-c2ccccc2-c2nnn[nH]2)cc1` [Example 7, (3S,3aR,6R,6aS)-6-(nitrooxy)hexahydrofuro[3,2-b]furan-3-yl 2-butyl-4-chloro-1-{[2′-(1H-tetrazol-5-yl)biphenyl-4-yl]methyl}-1H-imidazole-5-carboxylate], for which the “DAN ΔRNS” value in assay [1] (1 h) is 5.4 ± 3.2 µM; in assay [1] (3 h) it was 1.5 ± 1.2 µM; in assay [1] (6 h), 0.2 ± 0.3 µM; in assay [1] (24 h) it was -0.3 ± 0.2 µM.
